Values of other authors, collected in US10933035B2, “Antimicrobial silicone-based wound dressings” (Covalon Technologies Inc., priority 2010, dated 2021).

Conditions: 20° C.

Solubility in water: 0.008 % wt/vol
SMILES: [H]/N=C(\N/C(=N/[H])NCCCCCCNC(=N)NC(=N)Nc1ccc(Cl)cc1)Nc1ccc(Cl)cc1 [Chlorhexidine]
